Results on 27 molecules are retold here after patent US20250171451A1, “NOVEL HETEROCYCLIC COMPOUND AND PHARMACEUTICAL COMPOSITION COMPRISING SAME” (Samjin Pharmaceutical Co., Ltd., priority 2022, published 2025).

Assay [1] relates to NF2-deficient mesothelioma cell line NCI-H226. Briefly: Evaluation of inhibition of cancer cell proliferation (CellTiter-Glo). The class given is cell-based. Particulars: Homo sapiens, 120 h, NCI-H226 cells, five days treatment, 2% FBS, read-out: Cancer cell growth inhibition NCI-H226 (GI50). The procedure:
The NF2-deficient mesothelioma cell line NCI-H226 was purchased from ATCC (#CRL-5826). NCI-H226 cells were cultured in RRPMI medium (ATCC) containing penicillin (100 units/mL), streptomycin (100 μg/mL) and 10% fetal bovine serum (FBS) at 37° C. and 5% CO2.
In 24 hours after dispensing said NCI-H226 cells into a 96-well plate, the cell culture medium was removed all, and then each compound corresponding to a certain concentration section (0.01, 0.05, 0.1, 0.5, 1, 5, 10 μM) or a vehicle solvent (final 1% DMSO) was diluted with a culture medium containing 2% FBS, treated at 100 μL for each well, and then cultured at 37° C. and 5% CO2. In five days after said treatment, CellTiter-Glo@2.0 Reagent (Promega) was treated in the same amount as the culture medium to measure cell growth, and placed in a shaker for two minutes so as to be well mixed, after which the plate was cultured at room temperature for ten minutes to stabilize a luminescence signal. After that, for ATP measurement through an intracellular luciferase reaction, the luminescence signal was measured using a microplate reader (TECAN). The value of the […] (GI50) at the moment when the cell proliferation was reduced by half was derived using the SoftMax Pro 5.4.1 program, and the results are shown in table 10 below.
In general terms: In ATP-based viability assays light output follows the ATP content of the culture.

Assay [2] deals with T1, recombinant GST-TEAD1 proteins (209 to 426 a.a.) (Homo sapiens, UniProt P28347).
T1 construct: recombinant GST-TEAD1 proteins (209 to 426 a.a.)
T1 sequence (P28347 209-426): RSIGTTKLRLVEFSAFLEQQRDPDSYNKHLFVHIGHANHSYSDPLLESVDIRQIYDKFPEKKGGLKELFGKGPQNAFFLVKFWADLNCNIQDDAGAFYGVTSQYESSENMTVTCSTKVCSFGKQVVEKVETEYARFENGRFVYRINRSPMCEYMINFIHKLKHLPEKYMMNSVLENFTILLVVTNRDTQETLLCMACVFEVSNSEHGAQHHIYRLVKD
Briefly: Evaluation of palmitoylation of TEAD protein. The following applies: 5 μM compound, 15 minutes preincubation, 3 μM alkyne palmitoyl-CoA 30 minutes, pH 6.4, vs DMSO control. The class given is biochemical. In a few lines:
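GST-TEAD1 (aa 209–426) preincubated 15 min with 5 μM compound, then autopalmitoylated 30 min with 3 μM alkyne palmitoyl-CoA in 50 mM MES pH 6.4; stopped with 1% SDS. Click biotinylation, SDS-PAGE and streptavidin-HRP blot; band intensity relative to DMSO control, normalised to anti-GST signal.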

The subject of assay [3] is TEAD response element (TRE) luciferase reporter in MCF-7 cell lines. Briefly: TEAD response element (TRE) reporter assay. Particulars: 0.2 μM compound, 24 hours, MCF-7 TEAD reporter cells, relative to vehicle (1% DMSO); for inhibition at 0.2 µM: Homo sapiens, MCF7. It is filed as cell-based. In a few lines: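 MCF-7 cells stably carrying a TRE-driven firefly luciferase reporter, treated 24 h after plating with compound at 0.2 μM final (1% DMSO) in serum-free medium for 24 h. Luminescence expressed relative to vehicle control set at 10000.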

For the molecule `C=CC(=O)Nc1cnc2c(c1)c(C)cn2Cc1ccc(C(F)(F)F)cc1` [Compound 3, N-(3-methyl-1-(4-(trifluoromethyl)benzyl)-1H-pyrrolo[2,3-b]pyridin-5-yl)acrylamide], the concentration for 50% growth inhibition (GI50) (as a rule, the concentration at which growth is held to half of that of the control) in assay [1] was 70 nM. The inhibition (usually the percentage by which the read-out fell short of the control) at 5 µM in assay [2] is over 80%. Moreover, in assay [3], the inhibition at 0.2 µM is over 50%.

Consider `C=CC(=O)Nc1cnc2c(c1)c(C)cn2-c1ccc(C(F)(F)F)cc1` [Compound 27, N-(3-methyl-1-(4-(trifluoromethyl)phenyl)-1H-pyrrolo[2,3-b]pyridin-5-yl)acrylamide], for which, in assay [1], the GI50 stood at 80 nM. Also, the inhibition at 5 µM in assay [2] is over 80%. Besides, the inhibition at 0.2 µM in assay [3] is over 50%.

On to `C=CC(=O)Nc1cnc2c(c1)c(Br)cn2Cc1ccc(C(F)(F)F)cc1` [Compound 40, N-(3-bromo-1-(4-(trifluoromethyl)benzyl)-1H-pyrrolo[2,3-b]pyridin-5-yl)acrylamide], for which the GI50 in assay [1] was determined as 220 nM. Also, the inhibition at 5 µM in assay [2] was over 80%. This molecule also had an inhibition at 0.2 µM in assay [3] of over 50%.

As for `C=CC(=O)Nc1cnc2c(c1)c(C)nn2-c1ccc(C(F)(F)F)cc1` [Compound 42, N-(3-methyl-1-(4-(trifluoromethyl)phenyl)-1H-pyrazolo[3,4-b]pyridin-5-yl)acrylamide], the GI50 in assay [1] was 10 nM. Further, the inhibition at 5 µM in assay [2] is over 80%. In assay [3], this molecule came in with an inhibition at 0.2 µM of over 50%.

Regarding `C=CC(=O)Nc1cnc2c(c1)c(C)nn2-c1ccc(C(C)(C)C)cc1` [Compound 79, N-(1-(4-(tert-butyl)phenyl)-3-methyl-1H-pyrazolo[3,4-b]pyridin-5-yl)acrylamide], in assay [2], the inhibition at 5 µM lay in the range of 40 to 80%. Also, the inhibition at 0.2 µM in assay [3] is 30 to 50%.

`C=CC(=O)Nc1cnc2c(c1)c(C)nn2-c1ccc(C(C)CC)cc1` (stereo not shown) [Compound 80, N-(1-(4-(sec-butyl)phenyl)-3-methyl-1H-pyrazolo[3,4-b]pyridin-5-yl)acrylamide]: in assay [2], the inhibition at 5 µM lay in the range of 40 to 80%. The inhibition at 0.2 µM in assay [3] lay within 30 to 50%.

For the molecule `C=CC(=O)Nc1cnc2c(c1)c(C)nn2-c1ccccc1OC` [Compound 81, N-(1-(2-methoxyphenyl)-3-methyl-1H-pyrazolo[3,4-b]pyridin-5-yl)acrylamide], in assay [2], the inhibition at 5 µM was under 40%. In addition, the inhibition at 0.2 µM in assay [3] was under 30%.

As to `C=CC(=O)Nc1cnc2c(c1)c(C)nn2-c1ccccc1C(F)(F)F` [Compound 82, N-(3-methyl-1-(2-(trifluoromethyl)phenyl)-1H-pyrazolo[3,4-b]pyridin-5-yl)acrylamide], the inhibition at 5 µM in assay [2] was under 40%. This molecule also gave an inhibition at 0.2 µM in assay [3] of under 30%.

As to `C=CC(=O)Nc1cnc2c(c1)c(C)nn2-c1ccccc1Br` [Compound 83, N-(1-(2-bromophenyl)-3-methyl-1H-pyrazolo[3,4-b]pyridin-5-yl)acrylamide], the inhibition at 5 µM in assay [2] was under 40%. The inhibition at 0.2 µM in assay [3] is under 30%.

For `C=CC(=O)Nc1cnc2c(c1)c(C)nn2-c1cc(OC)cc(OC)c1` [Compound 84, N-(1-(3,5-dimethoxyphenyl)-3-methyl-1H-pyrazolo[3,4-b]pyridin-5-yl)acrylamide], the inhibition at 5 µM in assay [2] was under 40%. This molecule returned an inhibition at 0.2 µM in assay [3] of under 30%.

As to `C=CS(=O)(=O)Nc1cnc2c(c1)c(C)nn2-c1ccc(C(F)(F)F)cc1` [Compound 85, N-(3-methyl-1-(4-(trifluoromethyl)phenyl)-1H-pyrazolo[3,4-b]pyridin-5-yl)ethenesulfonamide], the inhibition at 5 µM in assay [2] is over 80%. For the same molecule, the inhibition at 0.2 µM in assay [3] is over 50%.

Consider `C=CC(=O)Nc1cnc2c(c1)c(C)nn2-c1ccc(C(F)(F)F)c(O)c1` [Compound 87, N-(1-(3-hydroxy-4-(trifluoromethyl)phenyl)-3-methyl-1H-pyrazolo[3,4-b]pyridin-5-yl)acrylamide], for which the inhibition at 5 µM in assay [2] fell in the range of 40 to 80%. The molecule further returned an inhibition at 0.2 µM in assay [3] of under 30%.

On to `CC=CC(=O)Nc1cnc2c(c1)c(C)nn2-c1ccc(C(F)(F)F)cc1` [Compound 88, N-(3-methyl-1-(4-(trifluoromethyl)phenyl)-1H-pyrazolo[3,4-b]pyridin-5-yl)but-2-enamide], for which the inhibition at 5 µM in assay [2] is 40 to 80%. Besides, the inhibition at 0.2 µM in assay [3] was in the range of 30 to 50%.

Take `C=CC(=O)Nc1cnc2c(c1)c(C)nn2-c1ccc(C(F)(F)F)s1` [Compound 89, N-(3-methyl-1-(5-(trifluoromethyl)thiophen-2-yl)-1H-pyrazolo[3,4-b]pyridin-5-yl)acrylamide]: in assay [2], the inhibition at 5 µM was in the range of 40 to 80%. Moreover, in assay [3], the inhibition at 0.2 µM is over 50%.

Regarding `C=CC(=O)N(C)c1cnc2c(c1)c(C)nn2-c1ccc(Cl)cc1` [Compound 91, N-(1-(4-chlorophenyl)-3-methyl-1H-pyrazolo[3,4-b]pyridin-5-yl)-N-methylacrylamide], in assay [2], the inhibition at 5 µM was over 80%. Further, the inhibition at 0.2 µM in assay [3] was over 50%.

Consider `C=CC(=O)Nc1cnc2c(c1)c(C)nn2-c1ccc(F)nc1` [Compound 93, N-(1-(6-fluoropyridin-3-yl)-3-methyl-1H-pyrazolo[3,4-b]pyridin-5-yl)acrylamide], for which the inhibition at 5 µM in assay [2] fell in the range of 40 to 80%. In assay [3], this molecule showed an inhibition at 0.2 µM of 30 to 50%.

Regarding `C=CC(=O)Nc1cnc2c(c1)c(C)nn2-c1cccnc1` [Compound 94, N-(3-methyl-1-(pyridin-3-yl)-1H-pyrazolo[3,4-b]pyridin-5-yl)acrylamide], in assay [2], the inhibition at 5 µM was under 40%. In assay [3], this molecule had an inhibition at 0.2 µM of under 30%.

As to `C=CC(=O)Nc1cnc2c(c1)c(C)nn2-c1ccc(Cl)c(Cl)c1` [Compound 96, N-(1-(3,4-dichlorophenyl)-3-methyl-1H-pyrazolo[3,4-b]pyridin-5-yl)acrylamide], the inhibition at 5 µM in assay [2] lay in the range of 40 to 80%. Moreover, the inhibition at 0.2 µM in assay [3] is over 50%.

On to `C=CC(=O)Nc1cnc2c(c1)c(C)nn2-c1ccc(C(F)(F)F)cn1` [Compound 97, N-(3-methyl-1-(5-(trifluoromethyl)pyridin-2-yl)-1H-pyrazolo[3,4-b]pyridin-5-yl)acrylamide], for which, in assay [2], the inhibition at 5 µM was under 40%. For the same molecule, the inhibition at 0.2 µM in assay [3] is over 50%.

Take `C=CC(=O)Nc1cnc2c(c1)c(C)nn2-c1ccc(O)cc1` [Compound 98, N-(1-(4-hydroxyphenyl)-3-methyl-1H-pyrazolo[3,4-b]pyridin-5-yl)acrylamide]: the inhibition at 5 µM in assay [2] is under 40%. The inhibition at 0.2 µM in assay [3] was under 30%.

With `C=CC(=O)Nc1cnc2c(c1)c(C)nn2-c1cnc(C(F)(F)F)c(C)c1` [Compound 99, N-(3-methyl-1-(5-methyl-6-(trifluoromethyl)pyridin-3-yl)-1H-pyrazolo[3,4-b]pyridin-5-yl)acrylamide], the inhibition at 5 µM in assay [2] is 40 to 80%. This molecule also had an inhibition at 0.2 µM in assay [3] of over 50%.

`C=CC(=O)Nc1cnc2c(c1)c(C)nn2-c1ccnc(C(F)(F)F)c1` [Compound 100, N-(3-methyl-1-(2-(trifluoromethyl)pyridin-4-yl)-1H-pyrazolo[3,4-b]pyridin-5-yl)acrylamide]: in assay [2], the inhibition at 5 µM is under 40%. In addition, the inhibition at 0.2 µM in assay [3] was over 50%.

With `C=CC(=O)Nc1cnc2c(c1)c(C)nn2-c1cnn(C(F)(F)F)c1` [Compound 101, N-(3-methyl-1-(1-(trifluoromethyl)-1H-pyrazol-4-yl)-1H-pyrazolo[3,4-b]pyridin-5-yl)acrylamide], in assay [2], the inhibition at 5 µM lay in the range of 40 to 80%. In assay [3], this molecule showed an inhibition at 0.2 µM of over 50%.

Take `C=CC(=O)Nc1cnc2c(c1)c(C)nn2-c1ccc(N)cc1` [Compound 102, N-(1-(4-aminophenyl)-3-methyl-1H-pyrazolo[3,4-b]pyridin-5-yl)acrylamide]: in assay [2], the inhibition at 5 µM was under 40%. Besides, the inhibition at 0.2 µM in assay [3] is under 30%.

`C=CC(=O)Nc1cnc2c(c1)c(C)nn2-c1ccc(OC(F)(F)F)nc1` [Compound 103, N-(3-methyl-1-(6-(trifluoromethoxy)pyridin-3-yl)-1H-pyrazolo[3,4-b]pyridin-5-yl)acrylamide]: the inhibition at 5 µM in assay [2] lay in the range of 40 to 80%. Further, the inhibition at 0.2 µM in assay [3] was over 50%.

For the molecule `C=CC(=O)Nc1cnc2c(c1)c(C)nn2-c1ccc(C#N)cc1` [Compound 104, N-(1-(4-cyanophenyl)-3-methyl-1H-pyrazolo[3,4-b]pyridin-5-yl)acrylamide], the inhibition at 5 µM in assay [2] is under 40%. Further, the inhibition at 0.2 µM in assay [3] was over 50%.

Turning to “N-(1-(4-(trifluoromethyl)benzyl)-1H-pyrazolo[3,4-b]pyridin-5-yl)acrylamide [Compound 5]”, the “% of inhibition of TEAD1 palmitoylation at 5 μM” value in assay [2] is recorded as “A (>80% inhibition)”. For the same molecule, the “% of inhibition of TRE luciferase at 0.2 μM” value in assay [3] is “A (>50% inhibition)”.
